Reference: patent US6946442B2, “Method of hastening cervical ripening” (priority 1994, dated 2005)

How the values were obtained:
[1] = test system: VEGF165 mRNA; assay: Northern blot hybridisation, VEGF165 mRNA in non-pregnant cervical tissue explants; format: cell-based, human; conditions: 48 hours
Procedure: Human uterine non-pregnant cervix tissue was obtained from non-malignant hysterectomies. The samples were maintained in phenol red free culture media DMEM supplemented with penicillin (1%), streptomycin (1%) and L-Glutamine (1%) and transferred to the laboratory on ice. The biopsies were washed in ice-cold saline solution then cut into small sections 1 to 2 mm and incubated in the above culture medium in 60×15 mm petri dishes at 37° C. in 5% CO2/95% air. Progesterone (P2) was added to the culture medium at concentrations of 10^−4, 10^−6 and 10^−8 M. 17−β Estradiol (E2) was added to the culture medium either alone at concentrations of 10^−6, 10^−7 and 10^−8 M or for 2 hours to prime the cervical explants at a concentration of 10^−7 M, followed by addition of Progesterone (P2) at concentrations ranging from 10^31 4 to 10^−8 M. The effect of VEGF165 (1, 10, 50, 100, 200 ng/ml) and PAF (10^−6−10^−10 M) in the non-pregnant cervical explants was also investigated. This culture system was chosen because it allows study of the intact tissues in their own matrix and avoids the potentially artefact-producing procedures of cell dispersion and culture. In this system, the cells remain intact for at least 5 days. RNA (40 μg/lane) was loaded onto a 1.2% agarose/formaldehyde gel, electrophoretically separated, transferred onto Hybond nylon membranes, and immobilised by exposure to U.V. light for 5 min. Membranes were prehybridized at 42° C. for 8 hours in a solution containing 50% formamide, 5×SSC, 5×Denhardt's solution, 0.5% SDS and salmon sperm DNA at 150 μg/ml. The VEGF165 cDNA was labelled with [α-^32P]dCTP by random-primer extension. 18s oligonucleotide probe labelled by T4 polynucleotide kinase with […] was used to determine the relative amount of RNA loaded in each lane by rehybridizing the blots that have previously been probed with VEGF165. Hybridisation was done under the same conditions with the labelled probe for 18 hours at 42° C. […]

[2] = test system: VEGF protein expression; assay: Western blot analysis, VEGF protein expression in non-pregnant cervical explants and culture medium; format: cell-based, human
Procedure: Human uterine non-pregnant cervix tissue was obtained from non-malignant hysterectomies. The samples were maintained in phenol red free culture media DMEM supplemented with penicillin (1%), streptomycin (1%) and L-Glutamine (1%) and transferred to the laboratory on ice. The biopsies were washed in ice-cold saline solution then cut into small sections 1 to 2 mm and incubated in the above culture medium in 60×15 mm petri dishes at 37° C. in 5% CO2/95% air. Progesterone (P2) was added to the culture medium at concentrations of 10^−4, 10^−6 and 10^−8 M. 17−β Estradiol (E2) was added to the culture medium either alone at concentrations of 10^−6, […] M, followed by addition of Progesterone (P2) at concentrations ranging from 10^31 4 to 10^−8 M. The effect of VEGF165 (1, 10, 50, 100, 200 ng/ml) and PAF (10^−6−10^−10 M) in the non-pregnant cervical explants was also investigated. This culture system was chosen because it allows study of the intact tissues in their own matrix and avoids the potentially artefact-producing procedures of cell dispersion and culture.
Cervical tissue, after having been stimulated with VEGF165 or PAF for 24 hours or with the ovarian steroid hormones, 17β-estradiol (E2) and progesterone (P2), for 48 hours, was washed twice in ice-cold PBS and homogenised in ice-cold, high salt lysis buffer (containing 0.4 M KCl, 20 mM HEPES, 1 mM DTT, 20% glycerol, 0.5 mg/ml Bacitracin, 40 μg/ml PMSF, 5 μg/ml Peptastin, 5 μg/ml Leupeptin). Homogenates were centrifuged at 12,000 revolutions/min for 15 minutes and the supernatants containing extracted protein were collected. The culture medium used to incubate the tissue with or without E2, P2 or E2+P2 was also collected, centrifuged. To the supernatant, 3 volumes of ethanol were added and stored at −70° C. for at least 5 hours. Then, the culture medium/ethanol suspension was centrifuged at 10,000 rpm for 10 min and the pellet containing the protein was resuspended in lysis buffer. Total protein, extracted from both tissue and medium, was quantified with the Bio-Rad protein assay, and 500 ng of protein from each sample was diluted in loading buffer (containing 0.02 M Tris-HCl, 0.002 M EDTA, 2% SDS, 10% mercaptoethanol, 20% glycerol, bromophenol blue). Samples were subjected to electrophoresis in a 12% polyacrylamide gel with 5% stacking gel and transferred overnight at 36V onto a nitrocellulose membrane. The membrane was blocked at RT with 1% skimmed milk in Tris-buffered saline solution before incubation with an antiserum (diluted 1:500) directed against the rabbit VEGF165 at 4° C. After a 15 min. wash and 2×5 min. washes with Tris-buffered saline solution at room temperature (RT), the membrane was incubated in an anti-rabbit secondary Ab conjugated to alkaline phosphatase. In case of Western blotting experiments for Connexin-43, the membrane was blocked overnight at 4° C. in blocking buffer (1% BSA in 10 mM Tris pH 7.5, 100 mM NaCl, 0.1% Tween 20), before incubation with a monoclonal antibody directed against Connexin-43 again overnight at 4° C. After a 6×5 min. washes with Tris-buffered saline solution, the membrane was incubated in a mouse secondary Ab conjugated to alkaline phosphatase. A chemiluminescence system (ECL-Amersham) was used to visualise the presence of VEGF165, Connexin-43 or Flt-1 protein. This is a highly sensitive and quantitative assay for detecting proteins immobilised on membranes.
Cervical tissue explants in culture medium were exposed to various concentrations of the ovarian steroid hormones, 17β-estradiol (E2) and progesterone (P2), for 48 hours, followed by extraction of protein from the tissue as well as the culture medium.

[3] = test system: pregnant rats; assay: Preterm delivery induced by progesterone receptor antagonist in pregnant rats; format: in vivo, Sprague-Dawley rats; conditions: 10 mg s.c. on day 19, in 24 h
Procedure: Treatments (Protocols A and B): Mouse recombinant VEGF164 (the murine equivalent of human VEGF165) was dissolved at a concentration of 10 and 100 ng/ml gel. Control animals received applications of gel only. Some animals were injected on day 19 s.c. with 10 mg progesterone receptor antagonist RU486, a protocol which induces in 24 h preterm delivery in 80% of animals.

[4] = test system: Connexin-43; assay: Western blot, Connexin-43 expression in non-pregnant cervical explants; format: cell-based, human
Procedure: Human uterine non-pregnant cervix tissue was obtained from non-malignant hysterectomies. The samples were maintained in phenol red free culture media DMEM supplemented with penicillin (1%), streptomycin (1%) and L-Glutamine (1%) and transferred to the laboratory on ice. The biopsies were washed in ice-cold saline solution then cut into small sections 1 to 2 mm and incubated in the above culture medium in 60×15 mm petri dishes at 37° C. in 5% CO2/95% air. Progesterone (P2) was added to the culture medium at concentrations of 10^−4, 10^−6 and 10^−8 M. 17−β Estradiol (E2) was added to the culture medium either alone at concentrations of 10^−6, 10^−7 and 10^−8 M or for 2 hours to prime the cervical explants at a concentration of 10^−7 M, followed by addition of Progesterone (P2) at concentrations ranging from 10^31 4 to 10^−8 M. The effect of VEGF165 (1, 10, 50, 100, 200 ng/ml) and PAF (10^−6−10^−10 M) in the non-pregnant cervical explants was also investigated. This culture system was chosen because it allows study of the intact tissues in their own matrix and avoids the potentially artefact-producing procedures of cell dispersion and culture. In this system, the cells remain intact for at least 5 days.

[5] = test system: Connexin-43; conditions: non-pregnant myometrial explants, FIG. 11A
Procedure: Cervical tissue, after having been stimulated with VEGF165 or PAF for 24 hours or with the ovarian steroid hormones, 17β-estradiol (E2) and progesterone (P2), for 48 hours, was washed twice in ice-cold PBS and homogenised in ice-cold, high salt lysis buffer (containing 0.4 M KCl, 20 mM HEPES, 1 mM DTT, 20% glycerol, 0.5 mg/ml Bacitracin, 40 μg/ml PMSF, 5 μg/ml Peptastin, 5 μg/ml Leupeptin). Homogenates were centrifuged at 12,000 revolutions/min for 15 minutes and the supernatants containing extracted protein were collected. The culture medium used to incubate the tissue with or without E2, P2 or E2+P2 was also collected, centrifuged. To the supernatant, 3 volumes of ethanol were added and stored at −70° C. for at least 5 hours. Then, the culture medium/ethanol suspension was centrifuged at 10,000 rpm for 10 min and the pellet containing the protein was resuspended in lysis buffer. Total protein, extracted from both tissue and medium, was quantified with the Bio-Rad protein assay, and 500 ng of protein from each sample was diluted in loading buffer (containing 0.02 M Tris-HCl, 0.002 M EDTA, 2% SDS, 10% mercaptoethanol, 20% glycerol, bromophenol blue). […] This is a highly sensitive and quantitative assay for detecting proteins immobilised on membranes.

[6] = test system: rat cervix; assay: Tensile properties (stress-strain, extensibility) of isolated cervix after intravaginal treatment of pregnant rats; format: in vivo, Sprague-Dawley rats; conditions: for cervical extensibility: 100 ng/ml gel intravaginally
Procedure: Control animals received applications of gel only.
The tensile properties of the isolated cervix were evaluated using the Shimadzu EZ-Test instrumentation using a test regimen which mimicked the conditions during labour. Briefly, the cervix was suspended between two hooks by means of threads passed through the cervical canal. It was then placed in a 40 ml tissue bath containing 10 mM HEPES/PBS solution (pH=7.4) maintained at 25° C. […] Each cervix was allowed 30 min. to equilibrate. The lower hook was fixed while the upper hook was movable, to simultaneously record displacement and force with a sample rate of 20 Hz. […] The upper hook was moved until a small resistance of the tissue (20 mN) was recorded after which the tester automatically moved the upper hook to incrementally stretch the cervix in steps of 0.4 mm. at 1 min. intervals. Between subsequent stretches the hook rested for 1 min. allowing the cervix to accommodate. During the accommodation periods the cervix reverted back to a relaxed state, therefore diminishing the opposed resistance and thus the tension recorded by the tester. FIG. 15 illustrates a typical stress-strain plot of a rat cervix. […] At YP permanent morphological changes and breaks in the material begin to occur. Break-point (BP) is the moment where the tissue completely breaks and the load abruptly falls toward zero. To quantify the elastic behaviour of the cervix (cervical resistance), straight lines are fitted through the linear portion of the force versus displacement curve. The slopes of the upper, lower and mid-point regression lines that are related to Young's modulus for elastic materials were used to best characterise the tensile properties of the sample. A larger slope indicates a higher resistance to dilation, therefore lower extensibility.

Molecule: CC(=O)[C@H]1CC[C@H]2[C@@H]3CCC4=CC(=O)CC[C@]4(C)[C@H]3CC[C@]12C [progesterone]
- VEGF mRNA ([1]; progesterone at 10^−4 M in the presence of 10^−7 M 17β-estradiol): down-regulated
- VEGF mRNA ([1]; progesterone at 10^−4 M): down-regulated
- VEGF protein expression in the culture medium ([2]; explants primed with 17β-estradiol for 4 hours, then increasing concentration of progesterone, culture medium): dose-dependent increase
- VEGF protein expression in the tissue ([2]; explants primed with 17β-estradiol for 4 hours, then increasing concentration of progesterone, tissue): dose-dependent increase
- VEGF protein in the culture medium compared with Control ([2]; progesterone at 10^−4 M, 48 hours, culture medium): down-regulated
- VEGF protein in the tissue itself compared with Control ([2]; progesterone at 10^−4 M, 48 hours, tissue): down-regulated

Molecule: C[C@]12CC[C@@H]3c4ccc(O)cc4CC[C@H]3[C@@H]1CC[C@@H]2O [17β-estradiol]
- VEGF mRNA compared to Control ([1]; 17β-estradiol alone, non-pregnant cervical explants): up-regulates
- secreted forms of VEGF in the culture medium ([2]; 17β-estradiol, 48 hours, culture medium): up-regulates
- VEGF protein in the tissue itself ([2]; 17β-estradiol, 48 hours, tissue): no effect

Molecule: CC#C[C@]1(O)CC[C@H]2[C@@H]3CCC4=CC(=O)CCC4=C3[C@@H](c3ccc(N(C)C)cc3)C[C@@]21C [RU486]
- preterm delivery [3]: 80 % of animals

Molecule: VEGF
- connexin-43 expression in cervical explants ([4]; non-pregnant cervical explants, FIG. 11B): up-regulation
- connexin-43 expression in myometrial explants [5]: up-regulation
- slope of stress-strain curve ([6]; 10 ng/ml gel intravaginally, protocol B (day 16 to day 20), significant only when applied later in pregnancy): statistically significant decrease
- cervical extensibility ([6]; protocol A (day 12 to day 16)): significantly increased
- cervical extensibility ([6]; protocol B (day 16 to day 20)): significantly increased

Molecule: platelet-activating factor [PAF]
- connexin-43 expression in cervix ([4]; PAF at various concentrations, non-pregnant cervix, FIG. 12): up-regulation
- VEGF expression in non-pregnant cervix ([2]; PAF at various concentrations, 24 hours): increases
